Converted amounts (≈) assume the structure as drawn. Read-outs that look alike come from different tables or passages of the source.
Tests used:
brine shrimp nauplii = experiment: Brine shrimp lethality bioassay; type: in vivo; details: 24 h, n = 3
Outline: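 Ten hatched nauplii per well in artificial seawater were exposed to test compounds at 400, 200, 100 and 50 µg/mL under a lamp. Survivors counted after 24 h; percentage mortality calculated; triplicate.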

[1] = system: NO generated by LPS-induced macrophages; experiment: Nitric oxide assay (Griess) in LPS-induced macrophages; type: cell-based, murine; details: Mus musculus, Macrophage, 18 h, LPS 1 µg/mL, read-out: % NO Production (Mean ± SEM)
Outline: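 Murine macrophages (1 × 10^6/well) pre-treated 2 h with compound at 100, 50, 10 or 1 µM, then LPS 1 µg/mL for 18 h. Nitrite in medium measured with Griess reagent at 540 nm against a NaNO2 standard curve; piroxicam as positive control, t-test for significance.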

Hep-2C cells = experiment: MTT assay against Hep-2C cells; type: cell-based, Human; details: Homo sapiens, Hep2C, read-out: IC50 (Mean ± SEM) Hep-2C Cells
Protocol: Hep-2C cell line experiments were performed in the Immunology Lab of the National Institute of Health (NIH), Islamabad, Pakistan. Human cervix carcinoma cells Hep-2C (ATCC HB-8065) were cultured in Dulbecco’s modified Eagle’s medium (DMEM), comprising 10% fetal calf serum (10% FCS) and supplemented with 2 mM L-glutamine, 100 U/mL penicillin, 100 µg/mL streptomycin and 1 mM Na pyruvate, at 37 °C in a humidified 5% CO2 incubator.
The tetrazolium dye 3-(4, 5-dimethyl thiazolyl-2)-2, 5-diphenyltetrazolium bromide (MTT) was used to assess the cytotoxic potential of the test compounds. In living cells, MTT is reduced into its insoluble purple product formazan, which is measured spectrophotometrically.
Hep-2C cells, in a density of 1 × 10^6 (> 90% cell viability), were cultured in a 96-well plate and treated with different concentrations of the test compounds for 24, 48 and 72 h. Ten microliters of MTT (1 mg per mL) were added per well followed by incubation for 4 h. Insoluble formazan crystals were dissolved by adding 100 µL of DMSO. Cells were then incubated for another 2 h. Absorbance was measured at 570 nm by a microplate reader. Untreated Hep-2C cells were taken as controls and DMSO as a negative. % cell viability = (abssample − absblank)/(abscontrol − absblank) × 100

raw macrophages = experiment: MTT cytotoxicity against raw macrophages; type: cell-based, albino rats; details: mean ± SEM, n = 3
Outline: (§1)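 Peritoneal macrophages from albino rats were treated for 24 h at 37 °C, 5% CO2 with test compounds at 100, 50, 10 and 1 µM or vehicle, from DMSO stocks. MTT was then added for 2 h, formazan dissolved in DMSO and absorbance read at 570 nm. % viability = blank-corrected sample over blank-corrected control ×100.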

[2] = MTT cytotoxicity against raw macrophages; type: cell-based, albino rats; details: albino, rat
Outline: as §1

[3] = DPPH free radical scavenging assay; details: mean ± SEM, n = 3
Outline: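 Compounds at 200, 66.6, 22.2 and 7.4 µg/mL were mixed with DPPH radical, with DMSO as the negative control. Absorbance was read at 630 nm, and % scavenging was calculated as (1 − Abs/Abc) × 100 against the control.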

IC50 (DPPH radical scavenging) ([3]; concentration to scavenge 50% of the DPPH radicals): 29.79 ± 0.26 µg/mL (≈ 121 µM)
SMILES: CCCN(CCC)CN1CCCc2ccccc21 [SF4, N-((3,4-dihydroquinolin-1(2H)-yl), methyl)-N-propylpropan-1 amine]
LD50 ± SEM (brine shrimp lethality) (brine shrimp nauplii): 100 ± 1.78 µg/mL
activity at 1 µM ([1]; 1 µM): 43.03 ± 0.41%
activity at 10 µM ([1]; 10 µM): 39.17 ± 0.38%
activity at 50 µM ([1]; 50 µM): 32.05 ± 0.31%
activity at 100 µM ([1]; 100 µM): 20.2 ± 0.28%
IC50 (Hep-2C cells; 24 h): 23.9 ± 1.07 µM
IC50 (Hep-2C cells; 48 h): 21.2 ± 1.2 µM
IC50 (Hep-2C cells; 72 h): 15.5 ± 1.03 µM
IC50 (raw macrophages): 7.2 ± 0.05 µM
viability at 24 h, 1 µM ([2]; peritoneal macrophages (raw macrophages), 1 µM, raw macrophages, 24 h, MTT, read-out: % Cell Viability): 79 ± 0.92%
viability at 24 h, 10 µM ([2]; peritoneal macrophages (raw macrophages), 10 µM, raw macrophages, 24 h, MTT, read-out: % Cell Viability): 53 ± 0.63%
viability at 24 h, 50 µM ([2]; peritoneal macrophages (raw macrophages), 50 µM, raw macrophages, 24 h, MTT, read-out: % Cell Viability): 42 ± 0.87%
viability at 24 h, 100 µM ([2]; peritoneal macrophages (raw macrophages), 100 µM, raw macrophages, 24 h, MTT, read-out: % Cell Viability): 39 ± 0.88%
IC50 at 24 h ([2]; primary peritoneal macrophages, mean ± SEM, n = 3): 7.208 ± 0.05 µM
% DPPH Scavenging Activity ([3]; 7.4 µg/mL): 18.12 ± 0.20%
% DPPH Scavenging Activity ([3]; 22.22 µg/mL): 41.63 ± 0.28%
% DPPH Scavenging Activity ([3]; 66.66 µg/mL): 53.65 ± 0.14%
% DPPH Scavenging Activity ([3]; 200 µg/mL): 58.58 ± 0.33%
